Assays:
[1] = tested on: HCT-116 (colorectal carcinoma); assay: IncuCyte real-time proliferation assay, HCT-116; assay type: cell-based; details: HCT-116, 72 h
[2] = tested on: Z-138 (non-Hodgkin lymphoma); assay: IncuCyte real-time proliferation assay, Z-138; assay type: cell-based; details: Z-138, 72 h
LN-229 (glioblastoma) = assay: IncuCyte real-time proliferation assay, LN-229; assay type: cell-based; details: LN-229, 72 h
[3] = tested on: Capan-1 (pancreatic adenocarcinoma); assay: IncuCyte real-time proliferation assay, Capan-1; assay type: cell-based
hCoV-229E = assay type: cell-based, human corona virus 229E; details: for EC50: (*) mean of three independent experiments ± SEM
[4] = tested on: NCI-H460 (lung carcinoma); assay: IncuCyte real-time proliferation assay, NCI-H460; assay type: cell-based; details: NCI-H460, 72 h
[5] = tested on: K-562 (chronic myeloid leukemia); assay: IncuCyte real-time proliferation assay, K-562; assay type: cell-based
[6] = tested on: DND-41 (acute lymphoblastic leukemia); assay: IncuCyte real-time proliferation assay, DND-41; assay type: cell-based
[7] = tested on: HL-60 (acute myeloid leukemia); assay: IncuCyte real-time proliferation assay, HL-60; assay type: cell-based; details: HL-60, 72 h
[8] = * mean of two independent experiments ± SEM
[9] = Capan-1, 72 h, * mean of two independent experiments ± SEM
[10] = K-562, 72 h, * mean of two independent experiments ± SEM
[11] = DND-41, 72 h, * mean of two independent experiments ± SEM

`Cc1ccc(C(=O)C2Sc3nnc(-n4nc(C)cc4C)n3NC2c2ccc(C)cc2)cc1` (racemic) [Compound 5b, ( ±)-(3-(3,5-Dimethyl-1H-pyrazol-1-yl)-6-(p-tolyl)-6,7-dihydro-5H-[1,2,4]triazolo[3,4-b][1,3,4]thiadiazin-7-yl)(p-tolyl)methanone] showed a CC50 (HEL 299 cells) of 81.5 µM, an IC50 [1, 8] of 67.8 µM and an IC50 [2, 8] of 48.4 µM. For the same molecule, the IC50 (LN-229 (glioblastoma); [8]) was 47.1 µM, the IC50 [3, 9] was 57.5 µM and the selectivity index (hCoV-229E) was “favorable selectivity indexes”. For the same molecule, the EC50 (hCoV-229E) was 4.7 ± 0.5 µM, the IC50 [4, 8] was greater than 100 µM and the IC50 [5, 10] was 10.4 µM. It also gave an IC50 [6, 11] of 39.3 µM and an IC50 [7, 8] of 50.9 µM.
`Cc1cc(C)n(-c2nnc3n2NC(c2ccc(Cl)cc2)C(C(=O)c2ccc(Br)cc2)S3)n1` (racemic) [5 g, ( ±)-(4-Bromophenyl)(6-(4-chlorophenyl)-3-(3,5-dimethyl-1H-pyrazol-1-yl)-6,7-dihydro-5H-triazolo[3,4-b][1,3,4]thiadiazin-7-yl)methanone] was tested, and the CC50 (HEL 299 cells) was greater than 100 µM, the IC50 [1, 8] was greater than 100 µM and the IC50 [2, 8] was greater than 100 µM. It also gave an IC50 (LN-229 (glioblastoma); [8]) greater than 100 µM, an IC50 [3, 9] greater than 100 µM and an EC50 (hCoV-229E) greater than 100 µM. The IC50 [4, 8] was greater than 100 µM, the IC50 [5, 10] was greater than 100 µM and the IC50 [6, 11] was greater than 100 µM. It also gave an IC50 [7, 8] greater than 100 µM.
In the case of `Cc1cc(C)n(-c2nnc3n2NC(c2ccco2)C(C(=O)c2ccc([N+](=O)[O-])cc2)S3)n1` (racemic) [Compound 5t, ( ±)-(3-(3,5-Dimethyl-1H-pyrazol-1-yl)-6-(furan-2-yl)-6,7-dihydro-5H-[1,2,4]triazolo[3,4-b][1,3,4]thiadiazin-7-yl)(4-nitrophenyl)methanone], the CC50 (HEL 299 cells) is reported as greater than 100 µM, the IC50 [1, 8] is reported as greater than 100 µM and the IC50 [2, 8] is reported as 49.5 µM. It also gave an IC50 (LN-229 (glioblastoma); [8]) of 62.7 µM, an IC50 [3, 9] greater than 100 µM and an EC50 (hCoV-229E) greater than 100 µM. The IC50 [4, 8] was greater than 100 µM, the IC50 [5, 10] was 79.3 µM and the IC50 [6, 11] was greater than 100 µM. It also gave an IC50 [7, 8] of 74.5 µM.
With `Cc1ccc(C(=O)C2Sc3nnc(-n4nc(C)cc4C)n3NC2c2ccco2)cc1` (racemic) [Compound 5r, ( ±)-(3-(3,5-Dimethyl-1H-pyrazol-1-yl)-6-(furan-2-yl)-6,7-dihydro-5H-[1,2,4]triazolo[3,4-b] [1,3,4]thiadiazin-7-yl)(p-tolyl)methanone] the CC50 (HEL 299 cells) was greater than 100 µM, the IC50 [1, 8] was 69 µM and the IC50 [2, 8] was 50.2 µM. It also gave an IC50 (LN-229 (glioblastoma); [8]) of 43.9 µM, an IC50 [3, 9] of 54.3 µM and an EC50 (hCoV-229E) greater than 100 µM. The IC50 [4, 8] was 47 µM, the IC50 [5, 10] was 23.5 µM and the IC50 [6, 11] was 70.2 µM. It also gave an IC50 [7, 8] of 54 µM.
For `CC(=O)O[C@@]12CO[C@@H]1C[C@H](O)[C@@]1(C)C(=O)[C@H](O)C3=C(C)[C@@H](OC(=O)[C@H](O)[C@@H](NC(=O)OC(C)(C)C)c4ccccc4)C[C@@](O)([C@@H](OC(=O)c4ccccc4)[C@H]21)C3(C)C` [Docetaxel, reference compound], the IC50 ([1]; Homo sapiens) was 0.0009 ± 0.0008 µM, the IC50 ([2]; Homo sapiens) was 0.0011 ± 0.0008 µM and the IC50 (LN-229 (glioblastoma); Homo sapiens) was 0.0087 ± 0.0004 µM. For the same molecule, the IC50 ([3]; Homo sapiens, CAPAN-1, 72 h) was 0.0042 ± 0.0021 µM, the IC50 ([4]; Homo sapiens) was 0.0038 ± 0.0029 µM and the IC50 ([5]; Homo sapiens, K562, 72 h) was 0.0037 ± 0.0003 µM. It also gave an IC50 ([6]; DND41, 72 h) of 0.0033 ± 0.0014 µM and an IC50 ([7]; Homo sapiens) of 0.0023 ± 0.0003 µM.
Work on `COc1cc(C2Nn3c(nnc3-n3nc(C)cc3C)SC2C(=O)c2ccccc2)cc(OC)c1OC` (racemic) [5 m, ( ±)-(3-(3,5-Dimethyl-1H-pyrazol-1-yl)-6-(3,4,5-trimethoxyphenyl)-6,7-dihydro-5H-[1,2,4]triazole [3,4-b][1,3,4]thiadiazin-7-yl)(phenyl)methanone] yielded a CC50 (HEL 299 cells) greater than 100 µM, an IC50 [1, 8] greater than 100 µM and an IC50 [2, 8] greater than 100 µM. It also gave an IC50 (LN-229 (glioblastoma); [8]) greater than 100 µM, an IC50 [3, 9] greater than 100 µM and an EC50 (hCoV-229E) of 95.7 µM. For the same molecule, the IC50 [4, 8] was greater than 100 µM, the IC50 [5, 10] was greater than 100 µM and the IC50 [6, 11] was greater than 100 µM. The IC50 [7, 8] was greater than 100 µM.
In the case of `Cc1cc(C)n(-c2nnc3n2NC(c2ccc([N+](=O)[O-])cc2)C(C(=O)c2ccc([N+](=O)[O-])cc2)S3)n1` (racemic) [Compound 5c, ( ±)-(3-(3,5-Dimethyl-1H-pyrazol-1-yl)-6-(4-nitrophenyl)-6,7-dihydro-5H-[1,2,4]triazolo[3,4-b][1,3,4]thiadiazin-7-yl)(4-nitrophenyl)methanone], the CC50 (HEL 299 cells) is reported as greater than 100 µM, the IC50 [1, 8] is reported as greater than 100 µM and the IC50 [2, 8] is reported as greater than 100 µM. For the same molecule, the IC50 (LN-229 (glioblastoma); [8]) was greater than 100 µM, the IC50 [3, 9] was greater than 100 µM and the EC50 (hCoV-229E) was 24.4 µM. For the same molecule, the IC50 [4, 8] was greater than 100 µM, the IC50 [5, 10] was greater than 100 µM and the IC50 [6, 11] was greater than 100 µM. The IC50 [7, 8] was greater than 100 µM.

— publication PMC8223195 (Molecular Diversity, 2021)
